For assay [1], the target named is T1, Human P2Y12 receptor (Homo sapiens, UniProt Q9H244).
T1 construct: expressed in transfected cells; host or cells: HEK cells
As to the kind of experiment: Human P2Y12 receptor cell membrane binding assay with [3H] 2-Mes-ADP. The settings on record: 1 nM [3H] 2-Mes-ADP, membranes of HEK cells expressing P2Y12 receptor; read-out: Binding activity (IC50). The procedure, abridged:
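Competition binding used 1 nM [3H]2-MeS-ADP on P2Y12-expressing HEK cell membranes for 1 h at room temperature, followed by filtration and scintillation counting.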

In assay [2] the test system is Human platelet aggregation caused by ADP. Description: Inhibition of ADP-induced platelet aggregation (Mimic-human PRP). In kind it is cell-based. The settings on record: 20 μM ADP, human platelet concentrate diluted with PPP, absorption at 595 nm. The procedure, abridged: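 Ki came from non-linear sigmoidal fits of inhibition, measured as the 3-min rise in absorbance at 595 nm after 20 μM ADP, relative to 0/20 μM ADP controls. Platelets (3–4×10^8/mL in PPP-diluted human PRP) were exposed to 0.01–30 μM compound for 20 min at room temperature beforehand.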

One may read the IC50 as the point on the concentration scale where inhibition reaches its midpoint. As usually defined, the Ki is a dissociation constant, usually derived from enzyme kinetics or from competition with a known ligand. Higher therefore signals a looser hold on the target.

T1 sequence (Q9H244 whole entry): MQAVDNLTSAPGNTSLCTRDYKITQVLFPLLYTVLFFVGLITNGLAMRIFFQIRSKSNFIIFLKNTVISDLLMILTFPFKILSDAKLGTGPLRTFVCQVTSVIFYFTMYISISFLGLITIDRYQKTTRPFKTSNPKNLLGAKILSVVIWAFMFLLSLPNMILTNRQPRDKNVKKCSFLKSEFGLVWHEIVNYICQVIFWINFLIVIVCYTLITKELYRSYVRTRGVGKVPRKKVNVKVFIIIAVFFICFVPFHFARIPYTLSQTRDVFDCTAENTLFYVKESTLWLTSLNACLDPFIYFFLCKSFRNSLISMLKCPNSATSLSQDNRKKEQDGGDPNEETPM

Take `CCCc1cc2c(N3CCn4c(nnc4C(F)(F)F)C3)nc(-c3nnc(CC#N)o3)nc2s1` [Example 4-34, {5-[6-Propyl-4-(3-trifluoromethyl-5,6-dihydro-8H-[1,2,4]triazolo[4,3-a]pyrazin-7-yl)thieno[2,3-d]pyrimidin-2-yl]-[1,3,4]oxadiazol-2-yl}acetonitrile]: the IC50 in assay [1] is 68 nM. In assay [2], the affinity corresponds to a Ki of 13 nM.

Turning to `CCCc1cc2c(N3CCn4c(nnc4C(F)(F)F)C3)nc(-c3nnc(COC)o3)nc2s1` [Example 4-35, 7-[2-(5-Methoxymethyl-[1,3,4]oxadiazol-2-yl)-6-propyl-thieno[2,3-d]pyrimidin-4-yl]-3-trifluoromethyl-5,6,7,8-tetrahydro-[1,2,4]triazolo[4,3-a]pyrazine], the concentration for half-maximal inhibition (IC50) in assay [1] stood at 130 nM. Moreover, affinity in assay [2] was put at a Ki of 30 nM.

As to `CCCc1cc2c(N3CCn4c(nnc4C(F)(F)F)C3)nc(-c3nnc(CO)o3)nc2s1` [Example 4-36, {5-[6-Propyl-4-(3-trifluoromethyl-5,6-dihydro-8H-[1,2,4]triazolo[4,3-a]pyrazin-7-yl)thieno[2,3-d]pyrimidin-2-yl]-[1,3,4]oxadiazol-2-yl}methanol], the IC50 in assay [1] was 250 nM. In assay [2], this compound returned an inhibition constant (Ki) of 300 nM.

As for `CCCc1cc2c(N3CCn4c(nnc4C(F)(F)F)C3)nc(-c3nnc(CCOC)o3)nc2s1` [Example 4-37, 7-{2-[5-(2-Methoxyethyl)-[1,3,4]oxadiazol-2-yl]-6-propyl-thieno[2,3-d]pyrimidin-4-yl}-3-trifluoromethyl-5,6,7,8-tetrahydro-[1,2,4]triazolo[4,3-a]pyrazine], the 50% inhibitory concentration (IC50) in assay [1] stood at 192 nM. The compound also had a Ki in assay [2] of 250 nM.

As to `CCCc1cc2c(N3CCn4c(nnc4C(F)(F)F)C3)nc(-c3nnc(CCO)o3)nc2s1` [Example 4-38, 2-{5-[6-Propyl-4-(3-trifluoromethyl-5,6-dihydro-8H-[1,2,4]triazolo[4,3-a]pyrazin-7-yl)thieno[2,3-d]pyrimidin-2-yl]-[1,3,4]oxadiazol-2-yl}ethanol], the half-maximal inhibitory concentration (IC50) in assay [1] is 320 nM. In assay [2], this compound registered a Ki of 250 nM.

For the compound `CCCc1cc2c(N3CCn4c(nnc4C(F)(F)F)C3)nc(-c3nnc(N)o3)nc2s1` [Example 4-39, 5-[6-Propyl-4-(3-trifluoromethyl-5,6-dihydro-8H-[1,2,4]triazolo[4,3-a]pyrazin-7-yl)thieno[2,3-d]pyrimidin-2-yl]-[1,3,4]oxadiazol-2-ylamine], the half-maximal inhibitory concentration (IC50) in assay [1] was determined as 100 nM. Also, the affinity in assay [2] corresponds to a Ki of 160 nM.

As for `CCCc1cc2c(N3CCn4c(nnc4C(F)(F)F)C3)nc(-c3nnc(CC(=O)OCC)o3)nc2s1` [Example 4-40, {5-[6-Propyl-4-(3-trifluoromethyl-5,6-dihydro-8H-[1,2,4]triazolo[4,3-a]pyrazin-7-yl)thieno[2,3-d]pyrimidin-2-yl]-[1,3,4]oxadiazol-2-yl}acetic acid ethyl ester], in assay [1], the concentration for half-maximal inhibition (IC50) is 230 nM. This compound returned a Ki in assay [2] of 270 nM.

In the case of `CCCc1cc2c(N3CCn4c(nnc4C(F)(F)F)C3)nc(-c3nnc(CC(=O)O)o3)nc2s1` [Example 4-41, {5-[6-Propyl-4-(3-trifluoromethyl-5,6-dihydro-8H-[1,2,4]triazolo[4,3-a]pyrazin-7-yl)thieno[2,3-d]pyrimidin-2-yl]-[1,3,4]oxadiazol-2-yl}acetic acid], in assay [1], the IC50 came out at 410 nM. The affinity in assay [2], expressed as Ki, was 700 nM.

Regarding `CCCc1cc2c(N3CCn4c(nnc4C(F)(F)F)C3)nc(-c3nnc(Cc4ccccc4)o3)nc2s1` [Example 4-42, 7-[2-(5-Benzyl-[1,3,4]oxadiazol-2-yl)-6-propyl-thieno[2,3-d]pyrimidin-4-yl]-3-trifluoromethyl-5,6,7,8-tetrahydro-[1,2,4]triazolo[4,3-a]pyrazine], the 50% inhibitory concentration (IC50) in assay [1] was 29 nM. The same compound came in with an inhibition constant Ki in assay [2] of 160 nM.

In the case of `CCCc1cc2c(N3CCn4c(nnc4C(F)(F)F)C3)nc(-c3nnc(CC4CCCCC4)o3)nc2s1` [Example 4-43, 7-[2-(5-Cyclohexylmethyl-[1,3,4]oxadiazol-2-yl)-6-propyl-thieno[2,3-d]pyrimidin-4-yl]-3-trifluoromethyl-5,6,7,8-tetrahydro-[1,2,4]triazolo[4,3-a]pyrazine], the half-inhibitory concentration (IC50) in assay [1] amounted to 147 nM. Besides, the inhibition constant (Ki) in assay [2] stood at 2700 nM.

The values are drawn from patent US20110166121A1 (LG LIFE SCIENCES LTD., priority 2008, published 2011).
